{"source": "patent US20240165126A1", "about": "(TONIX PHARMACEUTICALS HOLDING CORP., priority 2021, published 2024)", "origin": "cited, not measured here", "details": "orally administered; extensive first pass hepatic metabolism; Smith et al. 2012", "data": [{"smiles": "C=CCN1CC[C@]23c4c5ccc(O)c4O[C@H]2C(=O)CC[C@@]3(O)[C@H]1C5", "note": "[Naloxone]", "values": [{"measurement": "systemic bioavailability", "value": "≤ 2", "unit": "%"}]}]}
